We go through 26 compounds from US20150258101A1 (Proximagen Limited, priority 2014, published 2015).

The target in the test is T1, purified recombinantly expressed human SSAO (Homo sapiens, UniProt Q16853).
T1 construct: made in house
T1 sequence (Q16853 1-763): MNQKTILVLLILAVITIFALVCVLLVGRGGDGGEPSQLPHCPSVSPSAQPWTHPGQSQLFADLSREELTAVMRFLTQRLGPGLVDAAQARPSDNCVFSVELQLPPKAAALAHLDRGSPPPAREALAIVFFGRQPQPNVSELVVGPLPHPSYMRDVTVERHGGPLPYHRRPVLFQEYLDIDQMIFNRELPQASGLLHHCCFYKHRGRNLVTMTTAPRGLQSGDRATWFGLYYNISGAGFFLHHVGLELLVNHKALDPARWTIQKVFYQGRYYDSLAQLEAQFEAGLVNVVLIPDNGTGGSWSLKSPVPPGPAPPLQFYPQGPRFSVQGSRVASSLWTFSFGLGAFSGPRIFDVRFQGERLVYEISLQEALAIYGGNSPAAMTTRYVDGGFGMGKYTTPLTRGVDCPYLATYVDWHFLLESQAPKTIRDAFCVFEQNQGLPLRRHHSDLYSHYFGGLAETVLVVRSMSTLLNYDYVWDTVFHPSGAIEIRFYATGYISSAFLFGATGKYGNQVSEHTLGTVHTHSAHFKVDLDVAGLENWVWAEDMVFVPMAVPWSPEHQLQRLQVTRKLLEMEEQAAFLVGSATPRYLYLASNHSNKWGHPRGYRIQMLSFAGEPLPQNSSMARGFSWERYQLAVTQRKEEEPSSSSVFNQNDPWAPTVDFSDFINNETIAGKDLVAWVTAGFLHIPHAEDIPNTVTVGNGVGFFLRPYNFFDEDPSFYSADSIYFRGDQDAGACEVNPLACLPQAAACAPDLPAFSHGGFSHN
In words: SSAO enzyme inhibition assay (benzylamine substrate; hydrogen peroxide/HRP-coupled or 14C aldehyde detection). The format is biochemical. The following applies: SSAO inhibitory activity, RT. On the procedure:
All primary assays were performed at RT. with purified recombinantly expressed human SSAO. Enzyme was prepared essentially as described in Öhman et al. (Protein Expression and Purification 46 (2006) 321-331). In addition, secondary- and selectivity assays were performed using SSAO prepared from various tissues or purified rat recombinant SSAO. The enzyme activity was assayed with benzylamine as substrate by measuring either benzaldehyde production, using ^14C-labeled substrate, or by utilizing the production of hydrogen peroxide in a horseradish peroxidase (HRP) coupled reaction. Briefly, test compounds were dissolved in dimethyl sulfoxide (DMSO) to a concentration of 10 mM. Dose-response measurements were assayed by either creating 1:10 serial dilutions in DMSO to produce a 7 point curve or by making 1:3 serial dilutions in DMSO to produce 11 point curves.
In a horseradish peroxidase (HRP) coupled reaction, hydrogen peroxide oxidation of 10-acetyl-3,7-dihydroxyphenoxazine produced resorufin, which is a highly fluorescent compound (Zhout and Panchuk-Voloshina. Analytical Biochemistry 253 (1997) 169-174; Amplex® Red Hydrogen Peroxide/peroxidase Assay kit, Invitrogen A22188). Enzyme and compounds in 50 mM sodium phosphate, pH 7.4 were set to pre-incubate in flat-bottomed microtiter plates for approximately 15 min before initiating the reaction by addition of a mixture of HRP, benzylamine and Amplex reagent. Benzylamine concentration was fixed at a concentration corresponding to the Michaelis constant, determined using standard procedures. Fluorescence intensity was then measured at several time points during 1-2 h, exciting at 544 nm and reading the emission at 590 nm. For the human SSAO assay final concentrations of the reagents in the assay wells were: SSAO enzyme 1 ug/ml, benzylamine 100 uM, Amplex reagent 20 uM, HRP 0.1 U/mL and varying concentrations of test compound. The inhibition was measured as % decrease of the signal compared to a control without inhibitor (only diluted DMSO). The background signal from a sample containing no SSAO enzyme was subtracted from all data points. Data was fitted to a four parameter logistic model and IC50 values were calculated using the Graph Pad Prism 4 or XLfit 4 programs.
SSAO activity was assayed using 14C-labeled benzylamine and analysed by measuring radioactive benzaldehyde. In a white 96-well optiplate (Packard), 20 uL of diluted test compound was pre-incubated at room temperature with 20 uL SSAO enzyme for approximately 15 min with continuous agitation. All dilutions were made with PBS. The reaction was initiated by adding 20 uL of the benzylamine substrate solution containing [7-14C] Benzylamine hydrochloride (CFA589, GE Healthcare). The plate was incubated for 1 h as above after which the reaction was stopped by acidification (10 uL 1M aq HCl). Then 90 uL Micro Scint-E solution (Perkin-Elmer) was added to each well and the plate was continuously mixed for 15 min. Phase separation occurred instantly and activity was read in a Topcount scintillation counter (Perkin-Elmer). In the final reaction well, the human recombinant SSAO concentration was 10 ug/ml. In order to optimize sensitivity, the substrate concentration was decreased as compared to the HRP coupled assay in order to get a higher fraction of radioactive product. In the human SSAO assay, benzylamine concentration was 40 uM (0.2 uCi/mL). Data was analysed as above.
One may read the IC50 as the concentration that inhibits the measured activity by half. Turning to `Fc1ccc(-n2c(-c3cnc(NCC4CC4)nc3)nc3ccncc32)cc1` [Example 9, N-(Cyclopropylmethyl)-5-[3-(4-fluorophenyl)-3H-imidazo [4,5-c]pyridin-2-yl]pyrimidin-2-amine], the IC50 was less than 0.05 µM.

Turning to `Cc1cnccc1-c1cc2ccncc2n1-c1ccc(Cl)cc1` [Example 154, 4-[1-(4-Chlorophenyl)-1H-pyrrolo[2,3-c]pyridin-2-yl]-3-methylpyridine], the IC50 was less than 0.05 µM. The result for `CN1CCN(C(=O)c2ccc(-c3cc4ccncc4n3-c3ccc(Cl)cc3)cc2)CC1` [Example 125, 1-({4-[1-(4-Chlorophenyl)-1H-pyrrolo[2,3-c]pyridin-2-yl]phenyl}carbonyl)-4-methylpiperazine] reads 0.2 to 1.2 µM; that for `O=c1cc(-c2nc3ccncc3n2-c2ccc(Cl)cc2F)cc[nH]1` [Example 34, 4-[3-(4-Chloro-2-fluorophenyl)-3H-imidazo[4,5-c]pyridin-2-yl]-1,2-dihydropyridin-2-one], 0.05 to 0.2 µM; that for `Fc1ccccc1-n1c(-c2cnc(N3CCOCC3)nc2)nc2ccncc21` [Example 60, 4-{5-[3-(2-Fluorophenyl)-3H-imidazo[4,5-c]pyridin-2-yl]pyrimidin-2-yl}morpholine], 0.05 to 0.2 µM. For the compound `Cn1ccc(-c2cc3ccncc3n2-c2ccc(Cl)cc2)cc1=O` [Example 143, 4-[1-(4-Chlorophenyl)-1H-pyrrolo[2,3-c]pyridin-2-yl]-1-methyl-1,2-dihydropyridin-2-one], the IC50 is less than 0.05 µM. In the case of `Cc1cc(N2CCOCC2)ncc1-c1nc2ccncc2n1-c1ccc(Cl)cc1F` [Example 22, 4-{5-[3-(4-Chloro-2-fluorophenyl)-3H-imidazo [4,5-c]pyridin-2-yl]-4-methylpyridin-2-yl}morpholine] it was less than 0.05 µM; in that of `Cc1ccc(-n2c(-c3cnc(N4CCOCC4)cc3C)nc3ccncc32)cn1` [Example 107, 4-{4-Methyl-5-[3-(6-methylpyridin-3-yl)-3H-imidazo[4,5-c]pyridin-2-yl]pyridin-2-yl}morpholine], less than 0.05 µM. In the case of `Cc1ccc(-n2c(-c3cnc(N4C[C@@H](C)O[C@@H](C)C4)nc3)nc3ccncc32)nc1` [Example 36, (2R,6S)-2,6-Dimethyl-4-{5-[3-(5-methylpyridin-2-yl)-3H-imidazo[4,5-c]pyridin-2-yl]pyrimidin-2-yl}morpholine] it was 0.05 to 0.2 µM; in that of `CC(=O)N1CCCN(c2ccc(-c3nc4ccncc4n3-c3ccc(F)cc3)cn2)CC1` [Example 87, 1-(4-{5-[3-(4-Fluorophenyl)-3H-imidazo[4,5-c]pyridin-2-yl]pyridin-2-yl}-1,4-diazepan-1-yl)ethan-1-one; bis(trifluoroacetic acid)], less than 0.05 µM; in that of `Fc1ccccc1-n1c(-c2ccc(N3CCOCC3)nc2)nc2ccncc21` [Example 68, 4-{5-[3-(2-Fluorophenyl)-3H-imidazo[4,5-c]pyridin-2-yl]pyridin-2-yl}morpholine], less than 0.05 µM. The result for `CN(C)c1ncc(-c2nc3ccncc3n2-c2ccc(Cl)cc2F)cn1` [Example 84, 5-[3-(4-Chloro-2-fluorophenyl)-3H-imidazo[4,5-c]pyridin-2-yl]-N,N-dimethylpyrimidin-2-amine] reads less than 0.05 µM; that for `Cn1ccc(-c2nc3ccncc3n2-c2ccc(Cl)cc2)cc1=O` [Example 32, 4-[3-(4-Chlorophenyl)-3H-imidazo[4,5-c]pyridin-2-yl]-1-methyl-1,2-dihydropyridin-2-one], less than 0.05 µM. On to `Cc1cc(F)ccc1-n1c(-c2cnc(N3CCOCC3)nc2)nc2ccncc21` [Example 55, 4-{5-[3-(4-Fluoro-2-methylphenyl)-3H-imidazo[4,5-c]pyridin-2-yl]pyrimidin-2-yl}morpholine], for which the IC50 is less than 0.05 µM. The result for `Fc1ccc(-n2c(-c3ccc(N4CCOCC4)nc3)nc3ccncc32)c(F)c1` [Example 41, 4-{5-[3-(2,4-Difluorophenyl)-3H-imidazo[4,5-c]pyridin-2-yl]pyridin-2-yl}morpholine] reads less than 0.05 µM; that for `Fc1ccc(-n2c(-c3ccc(N4CCOCC4)nc3)nc3ccncc32)c(Cl)c1` [Example 61, 4-{5-[3-(2-Chloro-4-fluorophenyl)-3H-imidazo[4,5-c]pyridin-2-yl]pyridin-2-yl}morpholine], less than 0.05 µM; that for `Cc1ccc(-n2c(-c3cnc(N4C[C@@H](C)O[C@@H](C)C4)nc3)nc3ccncc32)cn1` [Example 118, (2R,6S)-2,6-Dimethyl-4-{5-[3-(6-methylpyridin-3-yl)-3H-imidazo[4,5-c]pyridin-2-yl]pyrimidin-2-yl}morpholine], less than 0.05 µM.

For `CC(C)OCCNc1ncc(-c2nc3ccncc3n2-c2ccc(F)cc2)cn1` [Example 38, 5-[3-(4-Fluorophenyl)-3H-imidazo[4,5-c]pyridin-2-yl]-N-[2-(propan-2-yloxy)ethyl] pyrimidin-2-amine], the IC50 was 0.05 to 0.2 µM.

With `Cc1ccc(-n2c(-c3cnc(NC4CCOCC4)nc3)nc3ccncc32)cc1` [Example 119, 5-[3-(4-Methylphenyl)-3H-imidazo[4,5-c]pyridin-2-yl]-N-(oxan-4-yl)pyrimidin-2-amine; bis(trifluoroacetic acid)], the IC50 is 0.05 to 0.2 µM. For the compound `Clc1ccc(-n2c(-c3cncnc3)cc3ccncc32)cc1` [Example 123], the IC50 is less than 0.05 µM. The result for `Clc1ccc(-n2c(-c3ccc(CN4CCOCC4)cc3)nc3ccncc32)cc1` [Example 49, 4-({4-[3-(4-Chlorophenyl)-3H-imidazo[4,5-c]pyridin-2-yl]phenyl}methyl)morpholine] reads less than 0.05 µM; that for `Fc1ccc(-n2c(-c3cnc(N4CCCOCC4)nc3)nc3ccncc32)cc1` [Example 25, 4-{5-[3-(4-Fluorophenyl)-3H-imidazo[4,5-c]pyridin-2-yl]pyrimidin-2-yl}-1,4-oxazepane], less than 0.05 µM. For `Clc1ccc(-n2c(-c3ccccn3)cc3ccncc32)cc1` [Example 121, 2-[1-(4-Chlorophenyl)-1H-pyrrolo[2,3-c]pyridin-2-yl]pyridine], the IC50 is less than 0.05 µM. On to `Cc1ccc(-n2c(-c3cnc(NCCOC(C)C)nc3)nc3ccncc32)cc1` [Example 39, 5-[3-(4-Methylphenyl)-3H-imidazo[4,5-c]pyridin-2-yl]-N-[2-(propan-2-yloxy)ethyl] pyrimidin-2-amine], for which the IC50 was less than 0.05 µM. Consider `Fc1cc(-n2c(-c3cnc(N4CCOCC4)nc3)nc3ccncc32)ccc1Cl` [Example 74, 4-{5-[3-(4-Chloro-3-fluorophenyl)-3H-imidazo[4,5-c]pyridin-2-yl]pyrimidin-2-yl}morpholine], for which the IC50 is 0.2 to 1.2 µM.

For `Cc1cc(N2CCOCC2)nc(C)c1-c1nc2ccncc2n1-c1ccc(F)cc1` [Example 29, 4-{5-[3-(4-Fluorophenyl)-3H-imidazo[4,5-c]pyridin-2-yl]-4,6-dimethylpyridin-2-yl} morpholine], the IC50 lay in the range of 0.2 to 1.2 µM.
